Experimental findings from patent US9597407B2, “Targeted antimicrobial moieties” (C3 Jian, Inc., priority 2009, dated 2017) are described below.

The test deals with bacteria. Put plainly: Binding of targeting peptides to microorganisms (Table 3). Particulars: microorganism bound by the targeting peptide; binding in aqueous buffers chosen by peptide solubility, preferably 1x PBS.

Entries after “also recorded” stand apart in the source; their conditions may differ.

Turning to “PF-247 (ETAASETH; Peptide with targeting and/or antimicrobial activity)”, the “Target(s)” value is “S. epidermidis”.
Then “PF-248 (ILSKLWFWMINSLGVVLLVSYWLLAKWGVA; Peptide with targeting and/or antimicrobial activity)”, with “S. mutans; also recorded: S. epidermidis; also recorded: M. luteus; also recorded: E. coli; also recorded: P. aeruginosa; also recorded: A. baumannii”; and “PF-253 (VRDDDS; Peptide with targeting and/or antimicrobial activity)”, with “S. epidermidis; also recorded: M. luteus”.
With “PF-254 (FIYGVGFVPHFWLWKWLFSPWIAWPLMLLGYYIWFLT; Peptide with targeting and/or antimicrobial activity)” the entry was “S. epidermidis; also recorded: M. luteus; also recorded: P. aeruginosa; also recorded: A. baumannii”; with “PF-256 (EYFKQVYVKNEKIYSFWICKDLSPKEAAKRAEDILVKLK; Peptide with targeting and/or antimicrobial activity)”, “S. epidermidis”; with “PF-259 (LPFSKIGRRVSYKKKDVLKYEQSKTVLNTAQLATV; Peptide with targeting and/or antimicrobial activity)”, “S. epidermidis; also recorded: P. aeruginosa; also recorded: A. baumannii”.
Consider “PF-262 (DPHSEIDVTRYCQLHHFTCQTMQISEREFHYLIETQ; Peptide with targeting and/or antimicrobial activity)”, for which the “Target(s)” value is “S. mutans; also recorded: S. epidermidis; also recorded: M. luteus; also recorded: E. coli; also recorded: P. aeruginosa; also recorded: A. baumannii”.
Then “PF-263 (NLKKCPC; Peptide with targeting and/or antimicrobial activity)”, with “S. epidermidis; also recorded: M. luteus; also recorded: A. baumannii”; and “PF-265 (MKTLFFPLFLIIFVLIIQALDQSYQKKIGISKPQKHPEFMQ; Peptide with targeting and/or antimicrobial activity)”, with “S. epidermidis; also recorded: M. luteus; also recorded: A. baumannii”; and “PF-266 (DQEKKNKTEESTEQ; Peptide with targeting and/or antimicrobial activity)”, with “S. mutans”.
As for “PF-267 (SDDKRTD; Peptide with targeting and/or antimicrobial activity)”, the “Target(s)” value is on record as “M. luteus”.
Take “PF-268 (EVLLSDLRPDIFSET; Peptide with targeting and/or antimicrobial activity)”: the “Target(s)” value was “S. mutans”.
With “PF-275 (LVSGVANTVKNTAHTVGNTAKHAGHVAADTTVKATKKQQVK; Peptide with targeting and/or antimicrobial activity)”, the “Target(s)” value is “S. mutans”.
With “PF-279 (SHIGFISISACLAVLLGIARLFVWTWVKFFA; Peptide with targeting and/or antimicrobial activity)” the entry was “S. mutans; also recorded: S. epidermidis; also recorded: M. luteus; also recorded: E. coli; also recorded: P. aeruginosa; also recorded: A. baumannii”; with “PF-281 (SYNTYYNKLIHGQRTPDGM; Peptide with targeting and/or antimicrobial activity)”, “S. mutans; also recorded: E. coli”; with “PF-282 (QNNDTSAWCGSAHKNGNS; Peptide with targeting and/or antimicrobial activity)”, “S. mutans”.
In the case of “PF-284 (MRYITYSLIPRLLSKKVIHQQ; Peptide with targeting and/or antimicrobial activity)”, the “Target(s)” value is “C. difficile”.
Regarding “PF-285 (VPAKLLRVIDEIPE; Peptide with targeting and/or antimicrobial activity)”, the “Target(s)” value is “S. mutans”.
Consider “PF-288 (IYQLLNIEYSEDD; Peptide with targeting and/or antimicrobial activity)”, for which the “Target(s)” value is on record as “S. mutans; also recorded: E. coli”.
Regarding “PF-291 (DVDGAIESEL; Peptide with targeting and/or antimicrobial activity)”, the “Target(s)” value was “S. mutans; also recorded: E. coli”.
Take “PF-295 (NIQVYESECGNYIFKKSDESFLIDIFDKNGTH; Peptide with targeting and/or antimicrobial activity)”: the “Target(s)” value is on record as “C. difficile”.
For “PF-299 (LATKLKYEKEHKKM; Peptide with targeting and/or antimicrobial activity)”, the “Target(s)” value is reported as “B. subtilis”.
Regarding “PF-300 (VKDVLLELFNKIIGA; Peptide with targeting and/or antimicrobial activity)”, the “Target(s)” value was “B. subtilis; also recorded: C. difficile”.
For “PF-304 (LVKDTSDIKNDLNNIEIVTSKNSNDIAKLKSVK; Peptide with targeting and/or antimicrobial activity)”, the “Target(s)” value is listed as “S. mutans”.
With “PF-308 (QQYLILDRM; Peptide with targeting and/or antimicrobial activity)”, the “Target(s)” value is reported as “C. difficile”.
For the substance “PF-309 (GIPGMTAAPAEENEQEENADEE; Peptide with targeting and/or antimicrobial activity)”, the “Target(s)” value was “S. mutans; also recorded: E. coli”.
Regarding “PF-311 (IDAVTKKKTTCMIRAPTKIPIAHTDN; Peptide with targeting and/or antimicrobial activity)”, the “Target(s)” value was “C. difficile”.
For “PF-314 (ECLKKAIKSKALNKAFKIDVPDEVYDNLLMELEEYEK; Peptide with targeting and/or antimicrobial activity)”, the “Target(s)” value was “S. mutans”.
In the case of “PF-317 (LILVSDI; Peptide with targeting and/or antimicrobial activity)”, the “Target(s)” value is recorded as “S. mutans”.
As to “PF-320 (DSGYYALLENKEERVVWDGEVVANNIFNNLWIVVNKVKTG; Peptide with targeting and/or antimicrobial activity)”, the “Target(s)” value was “S. mutans; also recorded: E. coli”.
Regarding “PF-323 (ARESIEKSHVPVDATIVGVVDSFEVFDE; Peptide with targeting and/or antimicrobial activity)”, the “Target(s)” value is listed as “S. mutans”.
Consider “PF-324 (HFSLL; Peptide with targeting and/or antimicrobial activity)”, for which the “Target(s)” value is listed as “C. difficile”.
As to “PF-325 (LTIDEKLRNHR; Peptide with targeting and/or antimicrobial activity)”, the “Target(s)” value is listed as “S. mutans; also recorded: E. coli”.
In the case of “PF-326 (VIVGNLGAQKEKRNDTPISAKKDIMGDKTVRVRADLHH; Peptide with targeting and/or antimicrobial activity)”, the “Target(s)” value was “S. mutans; also recorded: E. coli”.
Turning to “PF-328 (NGNEKAFSEVENLVK; Peptide with targeting and/or antimicrobial activity)”, the “Target(s)” value is reported as “S. mutans”.
With “PF-329 (IGILFDKSVRKY; Peptide with targeting and/or antimicrobial activity)”, the “Target(s)” value was “S. epidermidis”.
Consider “PF-333 (YMTKKLVEMAEQQMAGKSNR; Peptide with targeting and/or antimicrobial activity)”, for which the “Target(s)” value is given as “S. mutans”.
